Patent US20240246902A1, “PRODRUGS OF 6-DIAZO-5-OXO-L-NORLEUCINE” (THE JOHNS HOPKINS UNIVERSITY, priority 2021, published 2024)
In brackets after ≈: the same amount, converted by molar mass. Like-named read-outs stand apart in the source and are kept apart here.

Key:
[1] = Plasma stability, human plasma; format: in vitro ADME; details: HP = Human Plasma
[2] = Metabolic stability in swine jejunum (gut) tissue homogenate; format: in vitro ADME; details: prodrug 20 μM, 37° C.
Description: (§1) The representative Compounds of the Disclosure were screened for metabolic stability in swine jejunum/liver tissue homogenates, following our previously reported methods (Zimmermann et al., J. Med. Chem., 61(9):3918-29 (2018); Tenora et al., J. Med. Chem., 62(7):3524-38 (2019)). In brief, freshly collected tissues were homogenized by probe sonication in 9× volume of 0.1 M potassium phosphate buffer over ice. Post homogenization, prodrugs were spiked at a concentration of 20 μM (in triplicate) and incubated in an orbital shaker at 37° C. for 60 min. Final concentration of DMSO in the incubations was 0.2% v/v. At each time point (0, 30, 60 min), 100 μL of sample was precipitated with 300 μL of methanol containing internal standard (IS; losartan: 0.5 μM). […] After centrifugation, 50 μL of supernatant was diluted with 50 μL of water, vortexed and submitted for analysis. Prodrug disappearance over time was measured using liquid chromatography tandem mass spectrometry (LC-MS/MS).
(§2) The processed supernatants were analyzed on a Thermo Scientific Vanquish UPLC system (equipped with Vanquish autosampler, pumps, and column compartment) hyphenated to TSQ Altis mass spectrometer (Thermo Fisher Scientific Inc., Waltham MA). […] The autosampler was operated at 4° C. […] Peak area ratios obtained from peak area counts of analyte and internal standard were used to measure the disappearance of prodrugs.

[3] = Plasma stability, mouse plasma; details: MP = Mouse Plasma
[4] = Plasma stability, plasma from CES1KO mice; details: CES1KO = Mouse Plasma from CES1KO mice
[5] = Plasma stability, rat plasma; format: in vitro ADME; details: RP = Rat Plasma
[6] = Metabolic stability in swine liver tissue homogenate; format: in vitro ADME; details: prodrug 20 μM, 37° C.
Description: as §1, §2

[7] = Plasma stability, pig plasma; format: in vitro ADME; details: PP = Pig Plasma
P493B lymphoma cells = assay: Human tumor cell-to-plasma partitioning assay (DON release in P493B cells); details: 10 million cells/mL, prodrug 20 μM, 37° C., 1 h
Description: The human plasma-to-tumor cell partitioning assays were conducted using P493B lymphoma following our previously reported method. […] In brief, cells were cultured in 150 cm^2 T-flasks (Falcon™, USA, Cat. #08-772-48) with RPMI Medium 1640 medium 1× containing L-glutamine (RPMI-1640, Corning®, USA, Cat. #10-040-CV), supplemented with 10% v/v Fetal Bovine Serum (FBS, Gibco™, USA, Cat. #26140079), and 1% v/v antimycotic/antibiotic (Gibco™, USA, Cat. #15240062). Cells were grown at 37° C., in a humidified atmosphere with 5% CO2. Cells were harvested after achieving>80% confluency and centrifuged at 200×g for 5 min at 25° C. The obtained cell pellet was re-suspended in 20 mL of Dulbecco's phosphate-buffered saline (DPBS, Gibco™, USA, Cat. #14-190-144) maintained at 37° C. and cell count was determined using an automated cell counter (Bio-Rad, USA). […] Both plasma and cell pellet fractions were analyzed for intact prodrug and DON levels.
Frozen plasma and cell pellets were thawed on wet ice. […] After centrifugation, 100 μL of the supernatant was diluted with 400 μL of water, and analyzed in LC-MS/MS. […]
The underivatized supernatants/derivatized samples were analyzed on a LC-MS/MS system consisting of Dionex ultra high-performance LC system hyphenated with Q Exactive Focus Orbitrap mass spectrometer (Thermo Fisher Scientific Inc., Waltham, MA). […]

[8] = not told
[9] = mouse, 1 h

| SMILES | Efflux (Efflux) | Plasma Stability (% remaining at 60 min) [1] | Gut Stability (% remaining at 60 min) [2] [%] | Plasma Stability (% remaining at 60 min) [3] | Liver stability (% remaining at 60 min) [6] [%] | Efflux [8] | further results |
| --- | --- | --- | --- | --- | --- | --- | --- |
| CC(=O)N[C@@H](Cc1c[nH]c2ccccc12)C(=O)N[C@@H](CCC(=O)C=[N+]=[N-])C(=O)OC(C)C [13′, reference compound] | 23 | 96 ± 3 (HP) % | 11 ± 1 | 0 ± 0 (MP) % |  |  | Plasma Stability (% remaining at 60 min) [4]: 94 ± 1 (ces1KO) %; solubility (Solubility): 240 µg/mL (≈ 0.544 mM) |
| CC(=O)N[C@@H](CCC(=O)C=[N+]=[N-])C(=O)OC(C)C [Compound 5a, Isopropyl (S)-2-acetamido-6-diazo-5-oxohexanoate] |  |  | 76 ± 0 |  | 23 ± 0 |  | Plasma Stability (% remaining at 60 min) [5]: 0 ± 0 (RP) %; Plasma Stability (% remaining at 60 min) [7]: 105 ± 1 (PP) %; Plasma Stability (% remaining at 60 min) [4]: 89 ± 2 (ces1KO) % |
| CN(C)CC(=O)N[C@@H](CCC(=O)C=[N+]=[N-])C(=O)OC(C)(C)C [Compound 5h, tert-Butyl (S)-6-diazo-2-(2-(dimethylamino)acetamido)-5-oxohexanoate] | 2 |  | 100 ± 1 |  | 93 ± 1 |  | P493B cells (DON release; nmol/g) (P493B lymphoma cells): Undetectable |
| CN(C)CC(=O)N[C@@H](Cc1c[nH]c2ccccc12)C(=O)N[C@@H](CCC(=O)C=[N+]=[N-])C(=O)OC(C)(C)C [Compound 11b, tert-Butyl (S)-6-diazo-2-((S)-2-(2-(dimethylamino)acetamido)-3-(1H-indol-3-yl)propanamido)-5-oxohexanoate] | 33 | 101 ± 0 (HP) % | 79 ± 4 | 68 ± 2 (MP) % | 80 ± 3 |  | Plasma Stability (% remaining at 60 min) [5]: 3 ± 0 (RP) %; solubility (Solubility): 170 µg/mL (≈ 0.341 mM) |
| CC(C)(C)OC(=O)[C@H](CCC(=O)C=[N+]=[N-])NC(=O)[C@H](Cc1c[nH]c2ccccc12)NC(=O)C12CCN(CC1)CC2 [Compound 11d, tert-Butyl (S)-2-((S)-3-(1H-indol-3-yl)-2-(quinuclidine-4-carboxamido)propanamido)-6-diazo-5-oxohexanoate] |  |  |  |  |  | 2 | solubility (physchem): 4300 µg/mL (≈ 7.81 mM) |
| Cn1cc(C[C@H](NC(=O)C23CCN(CC2)CC3)C(=O)N[C@@H](CCC(=O)C=[N+]=[N-])C(=O)OC(C)(C)C)c2ccccc21 [Compound 12b, tert-Butyl (S)-6-diazo-2-((S)-3-(1-methyl-1H-indol-3-yl)-2-(quinuclidine-4-carboxamido)propanamido)-5-oxohexanoate] |  |  |  |  |  | 3.48 | solubility (physchem): 8800 µg/mL (≈ 15.6 mM); Plasma Stability (% remaining at 60 min) [9]: 92 ± 1 (MP) % |
| Cn1cc(C[C@H](NC(=O)C2CN3CCC2CC3)C(=O)N[C@@H](CCC(=O)C=[N+]=[N-])C(=O)OC(C)(C)C)c2ccccc21 (stereo partly drawn) [Compound 12c, tert-Butyl (2S)-6-diazo-2-((2S)-3-(1-methyl-1H-indol-3-yl)-2-(quinuclidine-3-carboxamido)propanamido)-5-oxohexanoate] |  |  |  |  |  | 5.37 |  |
| Cn1cc(C[C@H](NC(=O)CCCNC(=O)C23CCN(CC2)CC3)C(=O)N[C@@H](CCC(=O)C=[N+]=[N-])C(=O)OC(C)(C)C)c2ccccc21 [Compound 12g, tert-Butyl (S)-6-diazo-2-((S)-3-(1-methyl-1H-indol-3-yl)-2-(4-(quinuclidine-4-carboxamido)butanamido)propanamido)-5-oxohexanoate] |  |  |  |  |  | 1 |  |
| CN(C)CC(=O)NCC(=O)N[C@@H](CCC(=O)C=[N+]=[N-])C(=O)OC(C)(C)C [Compound 14b, tert-Butyl (S)-6-diazo-2-(2-(2-(dimethylamino)acetamido)acetamido)-5-oxohexanoate] | 33 | 100 ± 5 (HP) % | 99 ± 2 | 73 ± 2 (MP) % | 90 ± 0 |  | solubility (Solubility): ~10000 µg/mL (≈ 27.1 mM) |
| CC(C)(C)OC(=O)[C@H](CCC(=O)C=[N+]=[N-])NC(=O)CNC(=O)C12CCN(CC1)CC2 [Compound 14d, tert-Butyl (S)-6-diazo-5-oxo-2-(2-(quinuclidine-4-carboxamido)acetamido)hexanoate] |  |  |  |  |  | 1.48 |  |
| CC(C)(C)OC(=O)[C@H](CCC(=O)C=[N+]=[N-])NC(=O)[C@H](Cc1ccccc1)NC(=O)C12CCN(CC1)CC2 [Compound 15b, tert-Butyl (S)-6-diazo-5-oxo-2-((S)-3-phenyl-2-(quinuclidine-4-carboxamido)propanamido)hexanoate] |  |  |  |  |  | 7.31 |  |
| CN(C)CC(=O)N[C@@H](Cc1cccnc1)C(=O)N[C@@H](CCC(=O)C=[N+]=[N-])C(=O)OC(C)(C)C [Compound 17b, tert-Butyl (S)-6-diazo-2-((S)-2-(2-(dimethylamino)acetamido)-3-(pyridin-3-yl)propanamido)-5-oxohexanoate] | 57 | 96 ± 3 (HP) % | 98 ± 1 | 82 ± 6 (MP) % | 91 ± 1 |  | Plasma Stability (% remaining at 60 min) [5]: 33 ± 2 (RP) %; solubility (Solubility): ~10000 µg/mL (≈ 21.7 mM) |
| CN(C)CC(=O)N[C@H](C(=O)N[C@@H](CCC(=O)C=[N+]=[N-])C(=O)OC(C)(C)C)c1ccccc1 [Compound 19a, tert-Butyl (S)-6-diazo-2-((S)-2-(2-(dimethylamino)acetamido)-2-phenylacetamido)-5-oxohexanoate] |  |  |  |  | 82 ± 0 | 24.37 |  |
| COCCOCCOC(=O)[C@H](CCC(=O)C=[N+]=[N-])NC(=O)[C@H](Cc1c[nH]c2ccccc12)NC(=O)CN(C)C [Compound 30b, 2-(2-Methoxyethoxy)ethyl (S)-6-diazo-2-((S)-2-(2-(dimethylamino)acetamido)-3-(1H-indol-3-yl)propanamido)-5-oxohexanoate] |  | 42 ± 1 (HP) % |  |  |  |  |  |
| CC(=O)N[C@@H](Cc1c[nH]c2ccccc12)C(=O)N[C@@H](CCC(=O)C=[N+]=[N-])C(N)=O [Compound 31a, (S)-2-((S)-2-Acetamido-3-(1H-indol-3-yl)propanamido)-6-diazo-5-oxohexanamide] | 1 | 100 ± 2 (HP) % | 79 ± 7 | 6 ± 1 (MP % | 58 ± 2 |  |  |
